Results on eleven compounds are retold here after patent EP4603105A1, “PHARMACEUTICAL COMPOSITION CONTAINING CYCLIC COMPOUND HAVING SELECTIVE KRAS INHIBITORY EFFECT AGAINST HRAS AND NRAS” (CHUGAI SEIYAKU KABUSHIKI KAISHA, priority 2022, dated 2024).

For orientation: Kd means the constant that tells how readily two partners part at equilibrium. The low end stands for tighter binding, the high end for weaker binding. The IC50 is the point on the concentration scale where inhibition reaches its midpoint.

Experiment [1] addresses GDP-bound KRAS wild-type protein (Homo sapiens, UniProt P01116). Nature of the experiment: Binding to KRAS by surface plasmon resonance (SPR), dissociation constant KD. The conditions noted are these: 1:1 binding model. The gist of the method: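 Measured at 30°C: SPR with GDP-loaded, E. coli-expressed biotin-Avi RAS captured (~100–300 RU), ascending 75 s compound injections, HBS pH 7.4 with GDP, MgCl2, 4% DMSO. KD from 1:1 fit.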
On the technique in general: Surface plasmon resonance follows binding to a sensor surface in real time, without labels.

In another experiment the target is HRAS wild-type protein (Homo sapiens, UniProt P01112). Nature of the experiment: Binding to HRAS by surface plasmon resonance (SPR), KD and KD ratio to KRAS. In a few lines:
(§1)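 Captured GDP-RAS (~100–300 RU) was exposed to increasing compound concentrations, 75 s per step, in running buffer with 10 µM GDP, 10 mM MgCl2 and 4% DMSO at pH 7.4.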

Experiment [2] has as its system human lung cancer strain NCI-H441. Kind of experiment: NCI-H441 cell proliferation inhibitory activity (CellTiter-Glo, 4 days). Format: cell-based. Particulars: read-out: NCl-H441 IC50. In a few lines: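 Step one: dispense the test compound in serial DMSO dilutions. Step three: add the reagent and measure […].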
(ATP-based viability assays read luminescence as a measure of living cells.)

The target of experiment [3] is GDP-bound NRAS wild-type protein (Homo sapiens, UniProt P01111). Nature of the experiment: Binding to NRAS by surface plasmon resonance (SPR), KD and KD ratio to KRAS. In a few lines:
as §1

The mark [4] stands for this setting: ratio of KD with respect to HRAS wild-type protein to KD with respect to KRAS.
[5] abbreviates: 50% proliferation inhibitory concentration, four days.
Setting [6] is: ratio of KD with respect to GDP-bound NRAS wild-type protein to KD with respect to KRAS.
Setting [7] is: ratio of KD for HRAS wild-type protein to KD for KRAS.
The mark [8] stands for this setting: ratio of KD for GDP-bound NRAS wild-type protein to KD for KRAS.

Where two headings read alike, the source gives them in different places.

GDP-bound KRAS wild-type protein, sequence (P01116 1-188 isoform P01116-2): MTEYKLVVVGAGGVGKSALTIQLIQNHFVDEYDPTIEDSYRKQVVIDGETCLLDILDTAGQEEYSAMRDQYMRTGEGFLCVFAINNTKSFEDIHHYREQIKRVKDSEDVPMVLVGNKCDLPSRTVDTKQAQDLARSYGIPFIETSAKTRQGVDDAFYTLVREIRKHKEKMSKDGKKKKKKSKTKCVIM
HRAS wild-type protein, sequence (P01112 whole entry): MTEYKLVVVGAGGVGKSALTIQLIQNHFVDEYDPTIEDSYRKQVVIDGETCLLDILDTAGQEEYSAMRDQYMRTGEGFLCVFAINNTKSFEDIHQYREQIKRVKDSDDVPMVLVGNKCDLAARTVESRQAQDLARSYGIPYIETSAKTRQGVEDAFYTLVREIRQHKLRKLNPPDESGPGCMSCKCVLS
GDP-bound NRAS wild-type protein, sequence (P01111 whole entry): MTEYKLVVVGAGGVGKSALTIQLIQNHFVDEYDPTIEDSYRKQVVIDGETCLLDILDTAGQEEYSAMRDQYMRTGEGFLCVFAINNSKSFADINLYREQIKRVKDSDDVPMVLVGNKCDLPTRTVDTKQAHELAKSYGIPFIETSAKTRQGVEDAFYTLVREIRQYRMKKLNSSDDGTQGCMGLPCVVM

Consider `CCO[C@@H]1C[C@H]2C(=O)NC3(CCC3)C(=O)N(C)[C@@H](C3CCCC3)C(=O)N(C)[C@H](C(=O)N(C)C)CC(=O)N(C)[C@@H](CC3CC3)C(=O)N[C@@H]([C@@H](C)CC)C(=O)N(C)CC(=O)N(C)[C@H]3C/C=C\CCN(C3=O)[C@@H](Cc3ccc(F)cc3)C(=O)N(C)CC(=O)N[C@@H](CCc3cc(F)c(Cl)c(F)c3)C(=O)N2C1` [PP1479], for which the Kd in experiment [1] (Single Cycle Kinetics) was found to be 0.49 nM. In addition, the “HRAS /KRAS” value on HRAS wild-type protein (setting [4]) is “B (a compound having 3 or more and less than 10 is denoted as B)”. Besides, in experiment [2] (setting [5]), the IC50 was found to be 140 nM. In experiment [3] (setting [6]), the “NRAS /KRAS” value was “A (a compound having 10 or more and less than 20 is denoted as A)”.
Take `CCO[C@@H]1C[C@H]2C(=O)NC3(CCC3)C(=O)N(C)[C@@H](C3CCCC3)C(=O)N(C)[C@H](C(=O)N(C)C)CC(=O)N(C)[C@@H](CC(C)C)C(=O)N[C@@H]([C@@H](C)CC)C(=O)N(C)CC(=O)N(C)[C@H]3C/C=C\CCN(C3=O)[C@@H](Cc3ccc(F)cc3C)C(=O)N(C)CC(=O)N[C@@H](CCc3ccc(Cl)c(Cl)c3)C(=O)N2C1` [PP1480]: in experiment [1] (Single Cycle Kinetics), the affinity, expressed as Kd, was 0.92 nM. For the same compound, on HRAS wild-type protein (setting [4]), the “HRAS /KRAS” value was “B (a compound having 3 or more and less than 10 is denoted as B)”. The IC50 in experiment [2] (setting [5]) is 85.8 nM. Further, in experiment [3] (setting [6]), the “NRAS /KRAS” value is “A (a compound having 10 or more and less than 20 is denoted as A)”.
As for `CCO[C@@H]1C[C@H]2C(=O)NC3(CCC3)C(=O)N(C)[C@@H](C3CCCC3)C(=O)N(C)[C@H](C(=O)N(C)C)CC(=O)N(C)[C@@H](CC(C)C)C(=O)N[C@@H]([C@@H](C)CC)C(=O)N(C)CC(=O)N(C)[C@H]3C/C=C\CCN(C3=O)[C@@H](Cc3ccc(F)cc3)C(=O)N(C)CC(=O)N[C@@H](CCc3ccc(Cl)c(Cl)c3)C(=O)N2C1` [PP1482], the Kd in experiment [1] (Single Cycle Kinetics) is 0.45 nM. For the same compound, the “HRAS /KRAS” value on HRAS wild-type protein (setting [4]) is “B (a compound having 3 or more and less than 10 is denoted as B)”. Besides, in experiment [2] (setting [5]), the IC50 was 76.4 nM. Besides, the “NRAS /KRAS” value in experiment [3] (setting [6]) is “A (a compound having 10 or more and less than 20 is denoted as A)”.
In turn, `CCO[C@@H]1C[C@H]2C(=O)NC3(CCC3)C(=O)N(C)[C@@H](C3CCCC3)C(=O)N(C)[C@H](C(=O)N(C)C)CC(=O)N(C)[C@@H](CC3CC3)C(=O)N[C@@H]([C@@H](C)CC)C(=O)N(C)CC(=O)N(C)[C@H]3C/C=C\CCN(C3=O)[C@@H](Cc3ccc(C)cc3)C(=O)N(C)CC(=O)N[C@@H](CCc3cc(F)c(Cl)c(F)c3)C(=O)N2C1` [PP1484] showed a Kd in experiment [1] (Single Cycle Kinetics) of 0.45 nM. The “HRAS /KRAS” value on HRAS wild-type protein (setting [4]) was “A (a compound having 10 or more and less than 20 is denoted as A)”. The IC50 in experiment [2] (setting [5]) was found to be 59.3 nM. Also, in experiment [3] (setting [6]), the “NRAS /KRAS” value was “A (a compound having 10 or more and less than 20 is denoted as A)”.
On to `CCO[C@@H]1C[C@H]2C(=O)NC3(CCC3)C(=O)N(C)[C@@H](C3CCCC3)C(=O)N(C)[C@H](C(=O)N(C)C)CC(=O)N(C)[C@@H](CC3CC3)C(=O)N[C@@H]([C@@H](C)CC)C(=O)N(C)CC(=O)N(C)[C@H]3C/C=C\CCN(C3=O)[C@@H](Cc3ccc(C)cc3)C(=O)N(C)CC(=O)N[C@@H](CCc3ccc(Cl)c(Cl)c3)C(=O)N2C1` [PP1485], for which binding in experiment [1] (Single Cycle Kinetics) was put at a Kd of 0.28 nM. At HRAS wild-type protein (setting [4]), the “HRAS /KRAS” value is “A (a compound having 10 or more and less than 20 is denoted as A)”. Further, in experiment [2] (setting [5]), the IC50 was found to be 30.5 nM. Moreover, the “NRAS /KRAS” value in experiment [3] (setting [6]) was “A (a compound having 10 or more and less than 20 is denoted as A)”.
In the case of `CCOC[C@H]1C(=O)N[C@@H]([C@@H](C)CC)C(=O)N(C)CC(=O)N(C)[C@H]2C/C=C\CCN(C2=O)[C@@H](Cc2ccc(C(F)(F)F)cc2)C(=O)N(C)CC(=O)N[C@@H](CCc2ccc(C(F)(F)F)c(OC)c2)C(=O)N2C[C@@H](C)C[C@H]2C(=O)N(C)C2(CCC2)C(=O)N(C)[C@@H](C2CCCC2)C(=O)N(C)[C@H](C(=O)N(C)C)CC(=O)N1C` [PP2359], the Kd in experiment [1] worked out at 0.02 nM. Also, on HRAS wild-type protein (setting [7]), the “HRAS /KRAS” value was “B (a compound having 3 or more and less than 10 is denoted as B)”. In experiment [2] (NCI-H441 cells, 4 days), the IC50 amounted to 7.6 nM. Also, the “NRAS /KRAS” value in experiment [3] (setting [8]) is “A (a compound having 10 or more and less than 20 is denoted as A)”.
`CCC[C@H]1C(=O)N[C@@H]([C@@H](C)CC)C(=O)N(C2CC2)CC(=O)N(C)[C@H]2C/C=C\CCN(C2=O)[C@@H](Cc2ccc(C(F)(F)F)cc2)C(=O)N(C)CC(=O)N[C@@H](CCc2ccc(C(F)(F)F)c(OC)c2)C(=O)N2C[C@@H](C)C[C@H]2C(=O)N(C)C2(CCC2)C(=O)N(C)[C@@H](C2CCCC2)C(=O)N(C)[C@H](C(=O)N(C)C)CC(=O)N1C` [PP2360] yielded a Kd in experiment [1] of 0.16 nM. In addition, the “HRAS /KRAS” value at HRAS wild-type protein (setting [7]) was “B (a compound having 3 or more and less than 10 is denoted as B)”. Moreover, the IC50 in experiment [2] (NCI-H441 cells, 4 days) turned out to be 2.9 nM. Further, the “NRAS /KRAS” value in experiment [3] (setting [8]) is “A (a compound having 10 or more and less than 20 is denoted as A)”.
The compound `CCC[C@H]1C(=O)N[C@@H]([C@@H](C)CC)C(=O)N2CCC[C@H]2C(=O)N(C)[C@H]2C/C=C\CCN(C2=O)[C@@H](Cc2ccc(C(F)(F)F)cc2)C(=O)N(C)CC(=O)N[C@@H](CCc2ccc(C(F)(F)F)c(OC)c2)C(=O)N2C[C@@H](C)C[C@H]2C(=O)N(C)C2(CCC2)C(=O)N(C)[C@@H](C2CCCC2)C(=O)N(C)[C@H](C(=O)N(C)C)CC(=O)N1C` [PP2362] had a Kd in experiment [1] of 0.076 nM. At HRAS wild-type protein (setting [7]), the “HRAS /KRAS” value was “A (a compound having 10 or more and less than 20 is denoted as A)”. Moreover, the IC50 in experiment [2] (NCI-H441 cells, 4 days) is 4.8 nM. The “NRAS /KRAS” value in experiment [3] (setting [8]) is “A (a compound having 10 or more and less than 20 is denoted as A)”.
In turn, `CCOC[C@H]1C(=O)N[C@@H]([C@@H](C)CC)C(=O)N2CCC[C@H]2C(=O)N(C)[C@H]2C/C=C\CCN(C2=O)[C@@H](Cc2ccc(C(F)(F)F)cc2)C(=O)N(C)CC(=O)N[C@@H](CCc2ccc(C(F)(F)F)c(OC)c2)C(=O)N2C[C@@H](C)C[C@H]2C(=O)N(C)C2(CCC2)C(=O)N(C)[C@@H](C2CCCC2)C(=O)N(C)[C@H](C(=O)N(C)C)CC(=O)N1C` [PP2363] returned a Kd in experiment [1] of 0.062 nM. Further, the “HRAS /KRAS” value at HRAS wild-type protein (setting [7]) was “B (a compound having 3 or more and less than 10 is denoted as B)”. The IC50 in experiment [2] (NCI-H441 cells, 4 days) was found to be 7.5 nM. In addition, the “NRAS /KRAS” value in experiment [3] (setting [8]) was “A (a compound having 10 or more and less than 20 is denoted as A)”.
The compound `CCC[C@H]1C(=O)N[C@@H]([C@@H](C)CC)C(=O)N(C2CC2)CC(=O)N(C)[C@H]2C/C=C\CCN(C2=O)[C@@H](Cc2ccc(C)cc2)C(=O)N(C)CC(=O)N[C@@H](CCc2ccc(C(F)(F)F)c(OC)c2)C(=O)N2C[C@@H](C)C[C@H]2C(=O)N(C)C2(CCC2)C(=O)N(C)[C@@H](C2CCCC2)C(=O)N(C)[C@H](C(=O)N(C)C)CC(=O)N1C` [PP2366] showed a Kd in experiment [1] of 0.048 nM. Also, the “HRAS /KRAS” value on HRAS wild-type protein (setting [7]) was “A (a compound having 10 or more and less than 20 is denoted as A)”. The IC50 in experiment [2] (NCI-H441 cells, 4 days) came out at 4.5 nM. In addition, the “NRAS /KRAS” value in experiment [3] (setting [8]) is “A (a compound having 10 or more and less than 20 is denoted as A)”.
In the case of `CCCOC[C@H]1C(=O)N[C@@H]([C@@H](C)CC)C(=O)N(C2CC2)CC(=O)N(C)[C@H]2C/C=C\CCN(C2=O)[C@@H](Cc2ccc(C)cc2)C(=O)N(C)CC(=O)N[C@@H](CCc2ccc(C(F)(F)F)c(OC)c2)C(=O)N2C[C@@H](C)C[C@H]2C(=O)N(C)C2(CCC2)C(=O)N(C)[C@@H](C2CCCC2)C(=O)N(C)[C@H](C(=O)N(C)C)CC(=O)N1C` [PP2367], the Kd in experiment [1] came out at 0.075 nM. The “HRAS /KRAS” value on HRAS wild-type protein (setting [7]) is “B (a compound having 3 or more and less than 10 is denoted as B)”. In addition, the IC50 in experiment [2] (NCI-H441 cells, 4 days) came out at 2.1 nM. Besides, the “NRAS /KRAS” value in experiment [3] (setting [8]) was “A (a compound having 10 or more and less than 20 is denoted as A)”.
